Measured values: paper PMC5321639, “Design and pharmacodynamics of recombinant NZ2114 histidine mutants with improved activity against methicillin-resistant Staphylococcus aureus” (AMB Express, 2017)

Test system: S. aureus ATCC43300
Assay: microbe, parasite or virus in culture
Type: cell-based, Staphylococcus aureus
Settings: for MICc (MIC of the most effective combination): checkerboard; for FIC: MICc/MICa
Procedure: The MIC values of four antibiotics (vancomycin, ampicillin, rifampicin and ciprofloxacin) to S. aureus ATCC43300 were tested as the MIC assay described above. The peptide solutions and antibiotics were diluted twofold with the final concentrations ranging from 1/16 to 8× MIC, and added into 96-well plates in a checkerboard fashion (White et al. [1996]). The results of combination were evaluated by calculating the fractional inhibitory concentration index (FICI) of each combination. FIC of H1, H2, H3=MIC of H1, H2, H3, respectively, in combination with antibiotic/MIC of H1, H2, H3 alone; FIC of antibiotics=MIC of antibiotic in combination with peptide/MIC of antibiotic alone; FICI = FIC of H1, H2, H3+ antibiotic, respectively. The result of interaction between two antimicrobial drugs was determined according to: FICI ≤ 0.5 refers to synergy, 0.5 < FICI ≤ 1 refers to additivity, 1 < FICI ≤ 4 refers to indifference, and FICI > 4 is defined as antagonism (Tsuji and Rybak [2006]).

- MIC (Staphylococcus aureus, ATCC43300, read-out: MICa (MIC of drug alone)): 0.019 µM
- MICc (MIC of the most effective combination) (in combination with H1): 0.019 µM
- MICc (MIC of the most effective combination) (in combination with H2): 0.019 µM
- MICc (MIC of the most effective combination) (in combination with H3): 0.038 µM
SMILES: CO[C@H]1/C=C/O[C@@]2(C)Oc3c(C)c(O)c4c(O)c(c(/C=N/N5CCN(C)CC5)c(O)c4c3C2=O)NC(=O)/C(C)=C\C=C\[C@H](C)[C@H](O)[C@@H](C)[C@@H](O)[C@@H](C)[C@H](OC(C)=O)[C@@H]1C [rifampicin]
- FIC (in combination with H1): 1
- FIC (in combination with H2): 1
- FIC (in combination with H3): 2
